Experimental data published in PubChem BioAssay (NCI).
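Each compound was tested at five concentrations against cells in 96-well plates for 48 hours. TGI is the concentration that stops growth completely.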

Key:
Experiment in all cases: DTP human tumour cell line panel, 48 h
M14 melanoma = test system: M14 melanoma
UACC-257 melanoma = test system: UACC-257 melanoma
IGROV1 ovarian = test system: IGROV1 ovarian
COLO 205 colon = test system: COLO 205 colon
A498 renal = test system: A498 renal
SK-MEL-2 melanoma = test system: SK-MEL-2 melanoma
HCC-2998 colon = test system: HCC-2998 colon
OVCAR-5 ovarian = test system: OVCAR-5 ovarian
SW-620 colon = test system: SW-620 colon
K-562 leukemia = test system: K-562 leukemia
SK-MEL-28 melanoma = test system: SK-MEL-28 melanoma
CCRF-CEM leukemia = test system: CCRF-CEM leukemia
UACC-62 melanoma = test system: UACC-62 melanoma
PC-3 prostate = test system: PC-3 prostate

Compound | TGI (M14 melanoma) [µM] | TGI (UACC-257 melanoma) [µM] | TGI (IGROV1 ovarian) [µM] | TGI (COLO 205 colon) [µM] | TGI (A498 renal) [µM] | TGI (SK-MEL-2 melanoma) [µM] | TGI (HCC-2998 colon) [µM] | TGI (OVCAR-5 ovarian) [µM] | TGI (SW-620 colon) [µM] | TGI (K-562 leukemia) [µM] | TGI (SK-MEL-28 melanoma) [µM] | TGI (CCRF-CEM leukemia) [µM] | TGI (UACC-62 melanoma) [µM] | TGI (PC-3 prostate) [µM]
Cc1nsc2cc(Cl)n(C)c(=O)c12 | > 100 | > 100 | > 100 | > 100 | > 100 | > 100 | > 100 | > 100 | > 100 | > 100 | > 100 | > 100 |  | 
COc1cccc(C2c3cc4c(cc3OC(N3CCCC3)C2c2ccccc2)OCO4)c1O (stereo not given) | 25.4 | 24.4 | 47.8 | 27.3 |  | 27.9 | 23.9 | 75.2 | 25.4 | 42.6 | 28.1 | 24.6 | 47.2 | 27
CC1=NN(c2ccccc2Cl)C2(C1)C(Cl)C(=O)N2c1nc2ccccc2s1 (stereo not given) | > 100 | > 100 | > 100 | > 100 | > 100 | > 100 | > 100 | > 100 | > 100 | > 100 |  |  | > 100 | > 100
CCN1C(c2ccccc2)=CC(c2ccccc2)(C(Cl)(Cl)Cl)C=C1c1ccccc1 | 26.4 | > 100 | 27.9 |  | 54.4 |  | 24.9 | 79 | > 100 | > 100 | 67 | > 100 |  | > 100
O=C(NC1C(=O)NC(CCc2ccccc2)NC1=O)OCc1ccccc1 (stereo not given) | > 100 | > 100 | > 100 | > 100 | > 100 |  |  | > 100 | > 100 | > 100 | > 100 | > 100 | > 100 | > 100
COC(=O)/C=C1/OC(c2ccccc2)=C(Br)C1=O | > 100 | > 100 |  | > 100 | > 100 |  | > 100 | > 100 | 36.7 | > 100 | > 100 | > 100 | > 100 | > 100
CC1(C)C2CCC1(C)C(NC(=O)COCCOCC(N)=O)C2 (stereo not given) | > 100 | > 100 | > 100 | > 100 | > 100 |  | > 100 | > 100 | > 100 | > 100 | > 100 | > 100 | > 100 | > 100
O=C1CSc2ccnc(=O)n21 | > 100 | > 100 | > 100 | > 100 | > 100 |  | > 100 | > 100 | > 100 |  | > 100 | > 100 | > 100 | > 100
Cc1cc(O)c(C(O)c2ccccn2)cc1O (stereo not given) | 38.4 |  | > 100 | 23.4 |  |  | 70.3 | 33.8 | 41.1 | > 100 | 33.5 | 38.4 | 28.7 | 29.1
COc1ccccc1NC(=S)Nc1ccccn1 | > 100 | > 100 | > 100 | > 100 | > 100 | > 100 |  | > 100 | > 100 | > 100 | > 100 | > 100 | > 100 | > 100
O=C1C=CC2(C=C1)O[C@H](CCc1ccccc1)[C@@H](CCc1ccccc1)O2 | > 100 | > 100 | > 100 | > 100 | > 100 | > 100 |  | > 100 | > 100 | > 100 | > 100 | > 100 | > 100 | > 100
COC(=O)c1c(C)c2c(c(C)c1O)OC(=O)c1c(C)cc(O)c(C=O)c1O2 | > 100 | > 100 | > 100 | > 100 |  |  | > 100 | > 100 | > 100 | > 100 | > 100 | > 100 | > 100 | > 100
Fc1nc(-c2c3ccccc3c3sc4ccccc4n23)nc(N2CCOCCOCCOCCOCC2)n1 | > 100 | > 100 | > 100 | > 100 | > 100 |  | > 100 | > 100 | > 100 | > 100 | > 100 | 93.4 | > 100 | > 100
COc1cc2c(/C=C3/C(=O)Nc4cc(C)c(O)cc43)c(Cl)[nH]c2cc1C | 5.89 | 19.6 | 18.8 | 4.62 | 43.2 | 23.9 |  | 15.6 | 12.4 | 3.9 | 18.9 | 2.02 | 8.77 | 21.9
COP(=O)(OC)[C@@](O)(c1ccccc1)[C@@H](O)[C@@H](O)c1ccccc1 | > 100 | > 100 | > 100 | > 100 | > 100 | > 100 |  | > 100 | > 100 |  | > 100 | 50.9 | > 100 | > 100
Nc1ccc(C(=O)NN2C(=O)C(Cl)C2c2ccc(O)cc2)cc1 (stereo not given) | 31.4 | > 100 | 32.9 | 33.4 | 56.5 | 31.4 |  | 46.6 | 44.7 | 49.5 | 40.7 | 33.8 | 29.1 | 
CN(C)Cc1cc(C(=O)/C=C/c2ccc(Cl)cc2Cl)cc(CN(C)C)c1O | 13.3 | 17.6 | 10.4 | 2.76 | 8.49 |  | 20.2 | 28.7 | 11.3 | 5.29 | 19.1 | 8.88 |  | 6.19
O=C(CC(=O)n1nc(-c2ccccc2)c(N=Nc2ccc([N+](=O)[O-])cc2)c1-c1ccccc1)Nc1ccc(Cl)cc1 | > 100 | > 100 | > 100 | 34.9 |  | > 100 | 91.4 | > 100 | > 100 | 17.8 | 80.8 | 97 | > 100 | 
